Measured values from PMC10227015, “From a drug repositioning to a structure-based drug design approach to tackle acute lymphoblastic leukemia” (Nature Communications, 2023).
Like-named read-outs stand apart in the source and are kept apart here.

Key:
dCK-C3S-S74E = assay: Thermal shift assay (TSA); details: for ΔTm (º) (TSA): Figure 2a, mean; for THERMAL SHIFT ASSAY +Tm (°): mean ± SD
Excerpt: BL21 pRIL Escherichia coli cells were transformed with dCK-plasmids (dCK-C4S-S74E (for crystallization assays) and dCK-C3S-S74E (for TSA, enzymatic and ITC assays)). […] Protein dCK-C3S-S74E used for other assays contained only three mutated cysteines. The S74E mutation mimics the phosphorylated state of this serine, which favors the open conformation of the enzyme, making it competent for nucleoside binding[45] to evaluate the binding affinity with compounds.
For binding assays (TSA, ITC and crystallography) cells were re-suspended in 50 mM TRIS, pH 8, 500 mM NaCl, 30 mM imidazole and 10% glycerol buffer and one EDTA free anti-protease tablet was added (Roche). After sonication and centrifugation (30,000 × g), the supernatant was loaded on a 5 ml HisTrap FF column (GE healthcare) pre-equilibrated with resuspension buffer. Protein was then eluted by resuspension buffer containing 500 mM imidazole. Protein eluted fractions were mixed and concentrated. Protein was further purified by size exclusion chromatography (superdex 200 16/600, GE healthcare) in 20 mM HEPES, pH 7.5, and 200 mM NaCl before concentration to 30 mg/ml and storage at −80 °C.
Thermal shift assay (TSA) experiments were performed in 384-well PCR white plates in the assay buffer containing 20 mM HEPES, pH 7.5 and 200 mM NaCl. […] Plates were centrifuged at 200 × g for 2 min at 4 °C. […] Raw fluorescence data were treated, and the melting temperatures (Tm) were calculated using CFX Manager 3.1 software (Bio-Rad). ΔTm represents the difference in Tm between the protein in the presence of compound and the protein alone (both at 2% DMSO). Each experiment was performed at least twice (with technical triplicates) and data are presented as the mean ± SD.

CCRF-CEM cell line = assay: dCK cellular assay: CCRF-CEM proliferation in the presence of dT and dC; format: cell-based, human
Protocol: The dCK cellular assay was set up to assess the ability to inhibit dCK activity in a cellular model. The model was developed with a T-cell acute lymphoblastic leukemia cell line (CCRF-CEM), because of its high dependence on the SP, thus on dCK activity. Cellular assays were performed to assess the inhibition of cell proliferation under two conditions: (i) in the presence of the compound alone to determine the nonspecific effect on cells, independent of dCK (nonspecific toxicity) and (ii) in the presence of an inhibitor of the DNP to determine the ability of compounds to inhibit dCK and decrease tumor proliferation (activity on dCK). The inhibitor of the DNP chosen for the experiments was thymidine (dT), a physiological inhibitor of ribonucleotide reductase which arrests cell proliferation in phase S. The dTTP produced via thymidine kinase from dT acts as a RNR inhibitor by an allosteric regulation of the R1 subunit. The addition of the nucleoside deoxycytidine (dC) in the medium allows the rescue of cell proliferation by passing only through the salvage pathway, mediated by dCK. dC needs to be added exogenously to mimic physiological concentrations because it is not present in the cell culture medium, on the contrary to mouse model, in which it is naturally present in the serum. Therefore, cell proliferation under these conditions (+dT +dC) is dCK dependent and it is possible to determine the IC50 of dCK inhibitors on the inhibition of cell proliferation. Results are expressed as % cell proliferation relative to the control with DMSO.
The amount of reduced dye formed by metabolically active cells was quantified by its fluorescence measured at 560 nm (excitation) and 590 nm (emission) in a microplate reader (CLARIOstar, BMG Labtech). A blank well without cells was used as a background control. Each experiment was performed at least three times (with technical triplicates) and data are presented as the mean ± SD.

[1] = Homo sapiens, Figure 2a, CCRF-CEM cell line, mean, read-out: IC50 (nM) (Cell Prolif)
[2] = Homo sapiens, read-out: dCK CELLULAR ASSAY IC50 (nM), CCRF-CEM, 200 µM dT and 1 µM dC, read-out: dCK […] ASSAY IC50

Sequence of dCK-C3S-S74E (P27707 whole entry S74E, form open): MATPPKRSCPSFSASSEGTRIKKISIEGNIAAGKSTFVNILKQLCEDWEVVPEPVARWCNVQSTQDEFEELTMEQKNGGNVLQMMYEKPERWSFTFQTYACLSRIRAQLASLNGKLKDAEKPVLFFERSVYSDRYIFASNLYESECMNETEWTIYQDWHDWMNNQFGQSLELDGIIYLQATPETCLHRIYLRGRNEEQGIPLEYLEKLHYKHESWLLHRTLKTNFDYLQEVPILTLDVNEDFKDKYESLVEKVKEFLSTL

Row | ΔTm (º) (TSA) (dCK-C3S-S74E) | THERMAL SHIFT ASSAY +Tm (°) (dCK-C3S-S74E) | IC50 (CCRF-CEM cell line; [1]) [nM] | IC50 (CCRF-CEM cell line; [2]) [nM] | IC50 (CCRF-CEM cell line; Figure 2a, CCRF-CEM cell line, mean, read-out: IC50 (nM) (Cell Prolif)) | SMILES
1 | 17.68 º | 17.7 ± 0.9 | 301 | – | – | Cc1ccc(-c2ccc(S(=O)(=O)N3CCN(C)CC3)cc2)cc1N(c1nc(-c2nc(N)cc(N)n2)cs1)C(C)C [OR0636]
2 | 20.49 º | 20.5 ± 0.9 | 88.3 | 84 ± 49 | – | Cc1ccc(-c2ccc(S(=O)(=O)N3CCN(C)CC3)cc2)cc1N(CC(C)C)c1nc(-c2nc(N)cc(N)n2)cs1 [OR0637]
3 | 20.22 º | 20.2 ± 0.9 | 35 | – | – | CCCN(c1nc(-c2nc(N)cc(N)n2)cs1)c1cc(-c2ccc(S(=O)(=O)N3CCN(CC)CC3)cc2)ccc1C [OR0638]
4 | 20.72 º | 20.7 ± 0.9 | 119 | – | – | CCCN(c1nc(-c2nc(N)cc(N)n2)cs1)c1cc(-c2ccc(S(=O)(=O)N3CCNCC3)cc2)ccc1C [OR0639]
5 | 18.22 º | 18.2 ± 0.9 | 3670 | – | – | CCCN(c1nc(-c2nc(N)cc(N)n2)co1)c1cc(-c2ccc(S(=O)(=O)N3CCN(C)CC3)cc2)ccc1C [OR0640]
6 | 21.11 º | 21.1 ± 1.1 | 10 | 10.5 ± 5 | – | CCCN(c1nc(-c2nc(N)cc(N)n2)cs1)c1cc(-c2ccc(S(=O)(=O)N3CCN(C)CC3)cc2Cl)ccc1C [OR0641]
7 | 20.22 º | 20.2 ± 0.9 | 45.7 | 46 ± 18 | – | CCCN(c1nc(-c2nc(N)cc(N)n2)cs1)c1cc(-c2ccc(S(=O)(=O)N3CCN(C)CC3)cc2F)ccc1C [OR0643]
8 | 20.5 º | 20.5 ± 1.2 | 12.1 | – | – | CCCN(c1nc(-c2nc(N)cc(N)n2)cs1)c1cc(-c2c(F)cc(S(=O)(=O)N3CCN(C)CC3)cc2OC)ccc1C [OR0644]
9 | 19.72 º | 19.7 ± 0.9 | 67.4 | 67 ± 22 | – | CCCN(c1nc(-c2nc(N)cc(N)n2)cs1)c1cc(-c2ccc(S(=O)(=O)N3CCN(C)CC3)cc2OC)ccc1C [OR0645]
10 | 22.39 º | 22.4 ± 1.1 | 171 | – | – | CCCN(c1nc(-c2nc(N)cc(N)n2)cs1)c1cc(-c2ccc(S(=O)(=O)C3CCNCC3)cc2)ccc1C [OR0646]
11 | 21.06 º | 21.1 ± 1.6 | 11 | 10.9 ± 4.1 | – | CCCN(c1nc(-c2nc(N)cc(N)n2)cs1)c1cc(-c2c(F)cc(S(=O)(=O)N3CCN(C)CC3)cc2F)ccc1C [OR0647]
12 | 22.28 º | 22.3 ± 1.1 | 134 | – | – | CCCN(c1nc(-c2nc(N)cc(N)n2)cs1)c1cc(-c2ccc(S(=O)(=O)N3CCC(N)CC3)cc2)ccc1C [OR0648]
13 | 18.61 º | 18.6 ± 1.5 | 120 | – | – | CCCN(c1nc(-c2nc(N)cc(N)n2)cs1)c1cc(-c2ccc(S(=O)(=O)N3CCN(C)CC3)c(OC(F)(F)F)c2)ccc1C [OR0650]
14 | 20.83 º | 20.8 ± 1.2 | 1530 | 1520 ± 178 | – | CCCN(c1nc(-c2nc(N)cc(N)n2)cs1)c1cc(-c2ccc(S(=O)(=O)NCCN)cc2)ccc1C [OR0651]
15 | 19.17 º | – | – | – | 7.3 | CCCN(c1nc(-c2nc(N)cc(N)n2)cs1)c1cc(-c2cnc(S(=O)(=O)N3CCN(C)CC3)cc2C)ccc1C [OR0652]
